Experimental data from patent US20220220533A1, “METHOD OF DIAGNOSING AND MONITORING SUBSTANCE ADDICTION OR BEHAVIORAL ADDICTION USING C-KIT BIOMARKER” (Wuhan University, priority 2019, published 2022).
Structures can show the parent of a compound that is named as a salt.

Columns and labels:
c-Kit [1] = assay type: in vivo, rat; conditions: rats, 1 h after acute morphine 10 mg/kg s.c., compared with normal rats
Protocol: (§1) After 1 h, anesthesia and perfusion were performed, a brain tissue was fixed with a 4% paraformaldehyde solution, dehydrated in alcohol solutions with different concentrations, hyalinized in xylene, embedded in paraffin, and then cut into 3 μm-thick sections. Tissues were deparaffinized, boiled in 0.01M sodium citrate buffer (pH 6.0) for 10-15 min, and cooled in cold water to room temperature.

c-Kit [2] = assay type: in vivo, rat
Protocol: Under the guidance of NIR-II fluorescence imaging, dynamic changes of the brain regions of the rats were dynamically monitored and photographed at 2 h, 6 h, 8 h and 12 h with a near-infrared II region imaging camera, respectively, so as to indicate changes in a phosphorylation level of c-Kit protein.

c-Kit [3] = biological target: T1, c-Kit (Rattus norvegicus, UniProt F7EWK5); assay type: in vivo; conditions: rats, imatinib mesylate 30 mg/kg i.p. 30 min before morphine or saline
T1 construct: from tissue; host or cells: rat brain (nucleus accumbens, prefrontal cortex, hippocampus and other regions)
Protocol: as §1

morphine CPP [4] = test: Formation of morphine conditioned place preference (CPP) in mice; assay type: in vivo; conditions: imatinib mesylate 45 mg/kg i.p. 30 min before morphine 15 mg/kg s.c., test day 10
[5] = test system: high-sugar and high-fat food CPP; test: Formation of conditioned place preference on high-sugar and high-fat food in rats; assay type: in vivo, rat; conditions: imatinib mesylate 1, 5, 10, 20 and 30 mg/kg i.p.
[6] = test system: high-sugar and high-fat food CPP; test: High-sugar and high-fat food CPP after environmental or unconditioned re-exposure, nucleus accumbens microinjection; assay type: in vivo, rat; conditions: rats
c-Kit [7] = biological target: T1, c-Kit; assay type: in vivo; conditions: gambling rats, imatinib mesylate 30 mg/kg
gambling behavior [8] = test: Rat gambling behavior model (rGT), Example 9; assay type: in vivo; conditions: rats, imatinib mesylate 30 mg/kg
Protocol: A gambling behavior model of rats was established: animals were first accustomed to the operating chambers twice a day for 30 min each time, during which sucrose granules were placed on the reaction wells and the food banks. Animals were then trained to poke their noses into one of the luminescent reaction wells within 10 s to obtain a reward. Space positions of the stimulus light were varied in different experiments of wells 1, 2, 4 and 5. Each session consisted of 100 trials lasting approximately 30 min. After 5 trials, animals continued to complete 100 trials. Animals were then trained 7 times for forced-choice rGT (or an rGT variant of the control group), followed by a completely free-choice task, ensuring that all animals had the same experience in the four reinforcement conditions and were designed to prevent simple prejudice against specific wells. The percentage of animals selected for a particular option trial was calculated according to the formula […].

gambling behavior [9] = test: Dose effect on gambling behavior in rats under gambling task (rGT) conditions; assay type: in vivo, rat
Protocol: A gambling behavior model of rats was established: firstly, the animals were acclimated to the operating chamber twice a day for 30 min each time, during which sucrose granules were placed on the reaction wells and the food bank. After acclimation, animals were trained to poke their noses into one of the luminescent reaction wells within 10 s to obtain a reward. Spatial positions of the stimulus light would appear in different wells of wells 1, 2, 4 and 5 in different experiments. Each session consisted of 100 trials lasting approximately 30 min. Animals were then trained 7 times for forced-choice rGT (or an rGT variant of the control group), and then underwent a completely free-choice task. This ensured that all animals had the same experience under the four reinforcement conditions and were designed to prevent simple prejudice against specific wells. The percentage of trials in which animals chose a particular option was calculated according to the formula in reference: Choices of a particular option/Total choices of 100 (Di C P, Manvich D F, Pushparaj A, et al. Effects of disulfiram on choice behavior in a rodent gambling task: association with catecholamine levels[J]. Psychopharmacology, 2018, 235(1):23-35). Each experiment lasted 30 min and experimental subjects responded with a nose poke on the illuminated food bank, which turned off the tray light and triggered the initiation of a 5-s intertrial interval (ITT). At the end of the ITI, wells 1, 2, 4 and 5 were illuminated for 10 s (in the forced-choice version of the task used in the training, only one well was illuminated).
Explanation to the above table: four wells in the experimental apparatus were respectively provided with different reward probability and penalty probability, as well as corresponding reward sucrose amount and penalty time.
After training, the rats were given with drugs. […] The rats in the direct administration group were directly given with imatinib (1, 5, 10, 20 and 30 mg/kg, ip) or saline (1 mL/kg, ip) without being placed in the experimental device. […]

morphine CPP [10] = conditions: mice
[11] = test system: high-sugar and high-fat food CPP; test: High-sugar and high-fat food CPP after environmental or unconditioned re-exposure, intraperitoneal administration; conditions: rats
[12] = rats exposed to the environment, 10, 20 and 30 mg/kg ip, compared to control group

T1 sequence (F7EWK5 26-978): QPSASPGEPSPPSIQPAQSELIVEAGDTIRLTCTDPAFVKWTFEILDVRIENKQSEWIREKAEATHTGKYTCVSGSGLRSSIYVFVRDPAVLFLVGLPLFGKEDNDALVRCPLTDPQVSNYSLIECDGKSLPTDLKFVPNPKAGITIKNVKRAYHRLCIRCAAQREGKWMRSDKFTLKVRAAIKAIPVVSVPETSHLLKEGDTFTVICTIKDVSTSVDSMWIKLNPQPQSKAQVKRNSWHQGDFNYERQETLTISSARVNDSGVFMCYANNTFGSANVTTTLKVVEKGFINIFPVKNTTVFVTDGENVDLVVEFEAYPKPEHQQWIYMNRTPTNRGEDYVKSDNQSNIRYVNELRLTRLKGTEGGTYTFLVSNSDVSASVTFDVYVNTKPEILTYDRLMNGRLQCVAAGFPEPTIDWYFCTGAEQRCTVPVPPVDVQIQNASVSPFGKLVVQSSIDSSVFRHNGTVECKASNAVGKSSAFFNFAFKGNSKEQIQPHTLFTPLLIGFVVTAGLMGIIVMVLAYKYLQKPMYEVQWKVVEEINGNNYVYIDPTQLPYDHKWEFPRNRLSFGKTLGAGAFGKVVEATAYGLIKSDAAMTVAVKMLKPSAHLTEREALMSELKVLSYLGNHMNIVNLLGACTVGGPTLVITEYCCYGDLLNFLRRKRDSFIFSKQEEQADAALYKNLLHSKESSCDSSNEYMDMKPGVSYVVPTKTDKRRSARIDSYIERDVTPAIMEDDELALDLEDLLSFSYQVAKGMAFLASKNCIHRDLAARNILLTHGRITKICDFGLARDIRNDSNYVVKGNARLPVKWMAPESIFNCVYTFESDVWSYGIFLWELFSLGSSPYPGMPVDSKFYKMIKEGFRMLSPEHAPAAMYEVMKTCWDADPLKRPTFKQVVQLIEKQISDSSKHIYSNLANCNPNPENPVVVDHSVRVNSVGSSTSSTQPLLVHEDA

Row | Compound | phosphorylation level of c-Kit protein in nucleus accumbens regions (c-Kit [1]) | phosphorylation level of c-Kit protein in prefrontal cortex, hippocampus and other regions (c-Kit [1]) | time at which enrichment intensity of the probes reached a peak (c-Kit [2]; rats after acute morphine administration) [h] | phosphorylation activity of c-Kit in the brains of the rats (brain brightness) (c-Kit [2]; rats, acute morphine 10 mg/kg s.c., contrast with normal saline group) | phosphorylation activity of c-Kit protein in nucleus accumbens, prefrontal cortex and hippocampus (c-Kit [3]) | formation of conditioned place preference (CPP score) (morphine CPP [4]) | formation of conditioned place preference on high-sugar and high-fat food [5] | food-seeking behavior caused by the environment and food ([6]; nucleus accumbens microinjection 4 μg/0.5 μL) | ignition of CPP ([6]; nucleus accumbens microinjection, after 2 weeks) | phosphorylation level of c-Kit (c-Kit [7]) | gambling behavior (gambling behavior [8]) | effect on gambling choice in rGT (gambling behavior [9]; rats as directly administered, any dose (1-30 mg/kg ip)) | choice at P4 in rGT (gambling behavior [9]; [12]) | optimal choice at P2 in rGT (gambling behavior [9]; [12]) | CPP Score after re-exposure to environmental cues (morphine CPP [10]; imatinib mesylate 45 mg/kg i.p. 30 min before re-exposure) | ignition of morphine CPP (morphine CPP [10]; small dose of morphine 5 mg/kg i.p., after 1 week) | ignition of CPP ([11]; i.p. administration, small amount of high-sugar and high-fat food, after 2 weeks) | food-seeking behaviors induced by environment and food ([11]; imatinib mesylate 1, 5, 10, 20 and 30 mg/kg i.p. after re-exposure)
1 | CN1CC[C@]23c4c5ccc(O)c4O[C@H]2[C@@H](O)C=C[C@H]3[C@H]1C5 [morphine] | significantly increased | no significant change | 6 | significantly enhance | – | – | – | – | – | – | – | – | – | – | – | – | – | –
2 | Cc1ccc(NC(=O)c2ccc(CN3CCN(C)CC3)cc2)cc1Nc1nccc(-c2cccnc2)n1 [imatinib mesylate] | – | – | – | – | significantly decreased | could not be formed normally | inhibited | inhibited | not ignited | significantly inhibited | significantly eliminated | no significant effect | reduced | significantly increased | significantly reduced | not ignited | not ignited | inhibited
